Results from US11945806B2, “Stabilization of amyloidogenic immunoglobulin light chains” (The Scripps Research Institute, priority 2019, dated 2024).

Assays:
[1] = test system: isolated V-domains from WIL, ALMC2 and 6aJL2; assay: Fluorogenic coumarin titration, isolated V-domains; format: binding, human; settings: 1 at 1 μM
Method: (§1) Fluorogenic coumarin titration. LCs were concentrated to 200 μM in centrifugal concentrators with a 10 kDa membrane, unless the available material was limiting. […] Fluorescence of 1 was measured on a Gemini plate reader (Molecular Devices) using an excitation wavelength of 373 nm and emission wavelength of 445 nm. Data were normalized platewise to the plateau fluorescence value for WIL-FL to calculate the fraction of 1 bound.
(§2) A successful kinetic stabilizer should, but is not required to, bind to and stabilize patient LCs with a vast range of sequences (30, 31). To ask whether 1 can stabilize other FL LC sequences, we measured binding of 1 to three more recombinant λ6-57 FL LC disulfide-linked dimers: JTO-FL; ALMC2-FL, an AL-associated LC sequence derived from the ALMC2 cell line (32); and the germline sequence 6aJL2-FL.

WIL-FL [2] = biological target: T1, WIL-FL (Homo sapiens, UniProt P01721); assay: Equilibrium unfolding, urea titration; format: biochemical; settings: 1 at 100 μM or 5 at 50 μM, WIL-FL 5 μM; 1.4 M without ligand
Method: Equilibrium unfolding. WIL-FL (5 μM) was titrated against urea in 50 mM sodium phosphate buffer, pH 7.0, containing 50 μM 5 or 100 μM 1. After incubation overnight at 25° C., intrinsic tryptophan fluorescence emission spectra were measured using a Jasco 8600 fluorimeter (μex=280 nm, μem=300-420 nm). Average wavelength (also known as center of spectral mass) values were calculated using the equation: […]
λi and Ii are the are the wavelength and intensity at i, respectively. Average wavelength data were normalized for comparison. […] Midpoint urea concentrations were calculated by fitting the titration data to a 2-state unfolding equation: […]
x is the urea concentration (M), G is the free energy of unfolding (kJ mol^−1), m is the denaturant dependence of the unfolding reaction (kJ mol^−1 M^−1), R is the ideal gas constant, T is the temperature in K, a and c are the fluorescence of the folded and unfolded states, and b and d are the denaturant dependence of the fluorescence of the folded and unfolded states, respectively.

[3] = test system: WIL-FL and JTO-FL variants with F98D mutation; assay: Fluorogenic coumarin titration, F98D variants; format: binding, human; settings: 1 at 1 μM; presence or absence of the C214 inter-chain disulfide bond
Method: as §1
To further test the hypothesis that 1 binds at the interface between the V-domains, we measured binding of 1 to WIL-FL and JTO-FL variants with mutations designed to disrupt the dimer (22). The F98D mutation, which disrupts the V-domain-V-domain interface, rendered binding of 1 (1 μM) undetectable in the presence or absence of the C214 inter-chain disulfide bond (FIG. 2d, right panel).

[4] = biological target: human serum albumin (HSA) (Homo sapiens, UniProt P02768); assay: Binding of 1 to albumin by fluorescence of 1
Sequence of human serum albumin (HSA) (P02768 25-609): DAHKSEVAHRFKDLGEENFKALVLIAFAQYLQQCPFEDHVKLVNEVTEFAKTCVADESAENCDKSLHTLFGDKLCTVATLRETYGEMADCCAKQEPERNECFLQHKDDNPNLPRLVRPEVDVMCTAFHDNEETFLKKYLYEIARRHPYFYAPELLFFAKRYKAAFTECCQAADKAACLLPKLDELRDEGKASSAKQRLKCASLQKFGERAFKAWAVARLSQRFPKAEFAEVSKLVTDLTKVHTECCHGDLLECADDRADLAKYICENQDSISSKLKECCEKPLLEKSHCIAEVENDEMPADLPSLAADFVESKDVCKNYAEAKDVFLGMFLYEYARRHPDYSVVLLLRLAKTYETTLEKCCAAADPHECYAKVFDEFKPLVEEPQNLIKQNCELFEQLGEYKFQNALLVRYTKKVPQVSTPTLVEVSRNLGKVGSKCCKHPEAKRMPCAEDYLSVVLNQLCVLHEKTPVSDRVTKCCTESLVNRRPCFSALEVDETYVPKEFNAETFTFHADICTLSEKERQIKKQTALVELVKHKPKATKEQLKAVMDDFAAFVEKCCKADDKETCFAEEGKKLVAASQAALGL
Source text: Therefore, kinetic stabilizer binding selectivity to FL LCs in preference to other plasma proteins is important to minimize the proportion of free FL LC. Albumin binds many small molecules in blood, typically with μM KD values.

JTO-V = JTO-V (Homo sapiens, UniProt P01721); assay: NMR native-state hydrogen-deuterium exchange; format: biochemical; settings: 1 at 500 μM
Method: (§3) Native-state hydrogen exchange experiments were measured for WIL-V at 0.2 mM and JTO-V at 0.1 mM with or without 0.5 mM 1. […] Per-residue exchange rates k, were converted to free energies using the equation where krc are the residue-specific exchange rates of unprotected amides (18):
(§4) To verify that binding of 1 reduces LC unfolding under non-denaturing conditions, we measured residue-specific hydrogen-deuterium exchange rates by NMR of WIL-V and JTO-V (100 μM) in the absence of or with 1 (500 μM). These rates (the decrease in intensity of the HSQC peak associated with each amide) are converted to free energies that report on each amide's folding equilibrium by normalizing for the published exchange rates of amides in unstructured peptides.

WIL-V = WIL-V (Homo sapiens, UniProt P01721); assay: NMR native-state hydrogen-deuterium exchange; format: biochemical; settings: 1 at 500 μM
Method: as §3, §4

WIL-FL* = assay: FP artefact counterscreen (compounds added after 24 h of proteinase K treatment); format: biochemical, human; settings: compound added after 24 h PK treatment; mean ± sd, n=3
Method: Secondly, to remove compounds that interfere with the FP measurement, the primary screen was repeated in triplicate but compounds were added after 24 h of proteinase K treatment (FIG. 1f). […] Bona fide hits should retain no FP beyond the low control.

WIL-FL [5] = biological target: T1, WIL-FL; assay: Fluorogenic coumarin titration; format: binding; settings: 0.05 in buffer
WIL-FL C214S = assay: Aggregation measured by SEC (disappearance of soluble dimeric LC); format: biochemical, human; settings: 1 at 200 μM, LC 10 μM, pH 5, 37° C.; 0.066 hr^−1 in the absence of 1
Method: Aggregation. WIL C214S was dialyzed into ddH2O and filtered. Each 1 ml reaction contained 10 μM LC, ddH2O, 1% DMSO or 200 μM 1 in 1% DMSO, 150 mM NaCl, and ABC buffer (20 mM sodium acetate, 20 mM boric acid, 20 mM sodium citrate, pH 5 with HCl). Components are listed in the order they were added.
For analysis by SEC, reactions were set up in 2 ml tubes (Axygen #SCT-200-B-S) equipped with 4 mm stir bars. For each experiment, four reactions (two replicates each of vehicle and 1) were placed in a microfuge tube rack on top of the center of a stir plate. Reactions were stirred at approximately 2,000 rpm at 37° C., and 60 μl aliquots were removed at the indicated timepoints. Aliquots were centrifuged at 16,000 g at 4° C. for 5 min. 10 μl of the supernatant was injected into a Waters Acquity H-Class Bio-UPLC (ultra performance liquid chromatography) instrument equipped with a BEH200 SEC column (Waters, Milford, MA) equilibrated with PBS with 1 mM EDTA. At the end of an experiment, stir bars were washed for at least 3 h with 1 M NaOH, followed by at least 3 h with 6 M GuHCl at room temperature to remove residual aggregates.
Thus, we also quantified aggregation by measuring the rate of disappearance of soluble dimeric LC using size exclusion chromatography (SEC) (4). […]

isolated λ3 C-domain = biological target: T2, isolated λ3 C-domain (Homo sapiens, UniProt P0DOY3); assay: Fluorogenic coumarin titration; format: binding; settings: 1 at 1 μM
T2 construct: made in house; host or cells: E. coli

5J8 Fab (LC:HC dimer) = assay: Binding of 1 by fluorescence; parameters: species or system human; settings: 1 at 1 μM
LCs with C214S mutation = assay: Fluorogenic coumarin titration, C214S LCs; format: binding, human; settings: 1 at 1 μM
Method: as §1, §2

CCN(CC)c1ccc2c(C)cc(=O)oc2c1 [Compound 1, 7-diethylamino-4-methylcoumarin]
affinity for 1 [1]: reduced affinity
midpoint concentration of urea required to unfold the FL LC (WIL-FL [2]): 2.0 M
binding of 1 [3]: undetectable
Kd [4]: 37 ± 3 µM
affinity of 1 for albumin in the presence of diflunisal ([4]; 100 μM diflunisal): reduced
average stabilization (free energy from exchange rates) (JTO-V): 0.6 kcal/mol
average stabilization (free energy from exchange rates) (WIL-V): 0.6 kcal/mol
Counterscreen activity (%) (WIL-FL*): −8.07 ± 3.3%
FP of 1 in the WIL-FL•1 complex (WIL-FL [5]): 0.35
kagg (WIL-FL C214S): 0.011 h⁻¹
binding of 1 (isolated λ3 C-domain): No binding
binding to 1 as measured by fluorescence (5J8 Fab (LC:HC dimer)): no apparent binding
affinity of LCs for 1 (LCs with C214S mutation): reduces the affinity
